# Assay results reported in patent US20230286970A1, “NOVEL OXADIAZOLE-BASED SELECTIVE HDAC6 INHIBITORS” (ITALFARMACO S.P.A., priority 2020, published 2023).
# Columns and labels:
# [1] = target: recombinant human HDAC6 (Homo sapiens (Human), UniProt Q9UBN7); assay: Enzymatic screening, HDAC6 inhibition (fluorogenic FdL_G substrate); assay type: biochemical
# Summary of the method: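 Enzyme was preincubated with compound (8 doses, triplicate, 1% DMSO) in 25 mM Tris-HCl pH 8, 130 mM NaCl, 0.05% Tween-20, 10% glycerol, with BSA. A FLUOR DE LYS-Green substrate was then added, and fluorescence was read after developer plus 2 μM TSA.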
# [2] = target: recombinant human HDAC1 (Homo sapiens (Human), UniProt Q13547); assay: Enzymatic screening, HDAC1 inhibition (fluorogenic FdL_G substrate); assay type: biochemical
# Summary of the method: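 Recombinant human HDAC1 inhibition was measured fluorometrically using the FLUOR DE LYS-Green (FdL_G) substrate. Compounds at 8 doses (1% DMSO final) in Tris-HCl pH 8 buffer with NaCl, Tween-20 and glycerol were preincubated in triplicate with enzyme and 1 mg/mL BSA, then given substrate. Developer I plus 2 μM TSA was added, and fluorescence read after 25 minutes in the dark.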
# Chain of recombinant human HDAC1 (Q13547 whole entry): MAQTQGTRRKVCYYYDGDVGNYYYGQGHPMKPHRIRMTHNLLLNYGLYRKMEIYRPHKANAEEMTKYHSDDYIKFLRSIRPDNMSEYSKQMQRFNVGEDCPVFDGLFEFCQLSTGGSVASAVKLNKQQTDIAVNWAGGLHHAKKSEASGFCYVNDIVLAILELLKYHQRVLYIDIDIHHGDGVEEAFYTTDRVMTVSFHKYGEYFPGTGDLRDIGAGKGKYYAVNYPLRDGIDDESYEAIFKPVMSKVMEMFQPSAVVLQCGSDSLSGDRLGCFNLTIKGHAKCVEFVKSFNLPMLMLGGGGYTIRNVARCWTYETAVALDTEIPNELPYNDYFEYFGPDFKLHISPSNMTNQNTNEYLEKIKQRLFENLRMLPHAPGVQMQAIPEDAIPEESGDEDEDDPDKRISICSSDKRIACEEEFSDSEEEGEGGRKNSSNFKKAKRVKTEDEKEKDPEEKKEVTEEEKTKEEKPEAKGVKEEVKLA
# Chain of recombinant human HDAC6 (Q9UBN7 whole entry): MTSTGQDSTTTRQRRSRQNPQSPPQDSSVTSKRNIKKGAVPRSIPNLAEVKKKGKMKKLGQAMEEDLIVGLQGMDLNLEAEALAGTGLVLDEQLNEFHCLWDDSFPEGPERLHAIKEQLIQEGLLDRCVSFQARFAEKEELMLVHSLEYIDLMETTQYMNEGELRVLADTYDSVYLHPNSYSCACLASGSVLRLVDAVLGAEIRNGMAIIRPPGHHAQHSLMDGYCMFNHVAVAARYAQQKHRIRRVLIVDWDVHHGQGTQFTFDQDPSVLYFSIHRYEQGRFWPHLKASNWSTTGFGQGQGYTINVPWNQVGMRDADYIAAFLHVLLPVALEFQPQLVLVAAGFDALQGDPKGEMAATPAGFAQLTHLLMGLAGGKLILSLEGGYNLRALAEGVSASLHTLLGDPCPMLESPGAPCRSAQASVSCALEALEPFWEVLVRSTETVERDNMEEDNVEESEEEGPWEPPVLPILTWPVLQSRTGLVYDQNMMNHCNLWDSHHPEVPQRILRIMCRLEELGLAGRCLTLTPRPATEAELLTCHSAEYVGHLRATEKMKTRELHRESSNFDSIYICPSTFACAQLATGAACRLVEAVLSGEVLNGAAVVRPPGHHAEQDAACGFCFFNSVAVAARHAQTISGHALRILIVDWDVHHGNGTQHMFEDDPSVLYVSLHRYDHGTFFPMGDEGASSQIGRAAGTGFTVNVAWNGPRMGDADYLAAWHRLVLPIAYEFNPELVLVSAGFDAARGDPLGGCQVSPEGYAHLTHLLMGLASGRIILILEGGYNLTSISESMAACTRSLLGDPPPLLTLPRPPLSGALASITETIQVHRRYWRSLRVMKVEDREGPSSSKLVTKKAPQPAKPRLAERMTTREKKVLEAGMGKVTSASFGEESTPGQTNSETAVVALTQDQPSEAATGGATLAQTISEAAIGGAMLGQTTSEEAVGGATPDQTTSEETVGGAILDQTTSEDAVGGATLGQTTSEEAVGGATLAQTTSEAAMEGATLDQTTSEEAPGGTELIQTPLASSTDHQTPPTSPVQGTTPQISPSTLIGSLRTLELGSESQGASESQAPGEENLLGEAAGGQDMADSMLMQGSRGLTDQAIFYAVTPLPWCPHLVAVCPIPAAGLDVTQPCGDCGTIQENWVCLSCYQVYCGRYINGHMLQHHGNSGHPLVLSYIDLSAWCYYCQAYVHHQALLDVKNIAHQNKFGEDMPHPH
Compound,IC50 [1],IC50 [2]
FCc1nnc(-c2ccc(Cc3nc(-c4ccc(NC5=NCCN5)cc4)no3)cc2)o1 [compound 380],19 nM,> 1e+06 nM
"CS(=O)(=O)NCC[C@@H](c1ccc(-c2nnc(C(F)F)o2)cc1)n1cc(-c2ccc(N)nc2)nn1 [compound 310, N-[(3S)-3-[4-(6-aminopyridin-3-yl)triazol-1-yl]-3-[4-[5-(difluoromethyl)-1,3,4-oxadiazol-2-yl]phenyl]propyl]methanesulfonamide]",138 nM,> 1e+06 nM
"O=C1Nc2ccc(-c3cn(Cc4ccc(-c5nnc(C(F)F)o5)cc4)nn3)cc2C12CCCC2 [compound 61, 5′-(1-(4-(5-(difluoromethyl)-1,3,4-oxadiazol-2-yl)benzyl)-1H-1,2,3-triazol-4-yl)spiro[cyclopentane-1,3′-indolin]-2′-one]",27 nM,> 200000 nM
"Nc1nccc2cc(-c3nnn(Cc4ccc(-c5nnc(C(F)F)o5)cc4F)n3)ccc12 [compound 397, 6-[2-[[4-[5-(difluoromethyl)-1,3,4-oxadiazol-2-yl]-2-fluorophenyl]methyl]tetrazol-5-yl]isoquinolin-1-amine]",57 nM,1e+06 nM
"Fc1cc(-c2nnc(C(F)F)o2)ccc1Cn1cnc(-c2ccc(NC3=NCCN3)cc2)c1 [compound 357, N-[4-[1-[[4-[5-(difluoromethyl)-1,3,4-oxadiazol-2-yl]-2-fluorophenyl]methyl]imidazol-4-yl]phenyl]-4,5-dihydro-1H-imidazol-2-amine]",12 nM,> 1e+06 nM

# The remaining lines, values ahead:
IC50 [1],IC50 [2],Compound
25 nM,> 1e+06 nM,"Cn1c(N)nc2cc(-c3nnn(Cc4ccc(-c5nnc(C(F)F)o5)c(F)c4F)n3)ccc21 [compound 371, 5-[2-[[4-[5-(difluoromethyl)-1,3,4-oxadiazol-2-yl]-2,3-difluorophenyl]methyl]tetrazol-5-yl]-1-methylbenzimidazol-2-amine]"
234 nM,> 200000 nM,"Nc1ccc(-c2noc(C(F)(F)c3ccc(-c4nnc(C(F)F)o4)cc3)n2)cn1 [Compd. 243, 5-(5-((4-(5-(difluoromethyl)-1,3,4-oxadiazol-2-yl)phenyl)difluoromethyl)-1,2,4-oxadiazol-3-yl)pyridin-2-amine]"
17 nM,199000 nM,"Cn1c(N)nc2cc(-c3cn(Cc4ccc(-c5nnc(C(F)F)o5)cc4F)nn3)ccc21 [compound 378, 5-[1-[[4-[5-(difluoromethyl)-1,3,4-oxadiazol-2-yl]-2-fluorophenyl]methyl]triazol-4-yl]-1-methylbenzimidazol-2-amine]"
33 nM,> 200000 nM,"O=C(Nc1ccc(-c2nnn(Cc3ncc(-c4nnc(C(F)F)o4)cn3)n2)cn1)C(F)F [compound 68, N-(5-(2-((5-(5-(difluoromethyl)-1,3,4-oxadiazol-2-yl)pyrimidin-2-yl)methyl)-2H-tetrazol-5-yl)pyridin-2-yl)-2,2-difluoroacetamide]"
202 nM,> 200000 nM,"FC(F)c1nnc(-c2ccc(Cn3cc(-c4ccccc4)nn3)cc2)o1 [compd. 234, 2-(difluoromethyl)-5-(4-((4-phenyl-1H-1,2,3-triazol-1-yl)methyl)phenyl)-1,3,4-oxadiazole]"
51 nM,> 200000 nM,"Nc1nc2cc(-c3cn(Cc4ccc(-c5nnc(C(F)F)o5)cc4)nn3)ccc2s1 [compound 132, 5-(1-(4-(5-(difluoromethyl)-1,3,4-oxadiazol-2-yl)benzyl)-1H-1,2,3-triazol-4-yl)benzo[d]thiazol-2-amine]"
30 nM,> 200000 nM,"NC(=O)c1cc(-c2nnn(Cc3ccc(-c4nnc(C(F)F)o4)cc3)n2)ccc1N [compound 72, 2-amino-5-(2-(4-(5-(difluoromethyl)-1,3,4-oxadiazol-2-yl)benzyl)-2H-tetrazol-5-yl)benzamide]"
49 nM,> 200000 nM,"O=C(Nc1ccc(-c2cn(Cc3ccc(-c4nnc(C(F)F)o4)cn3)cn2)cn1)C(F)F [compound 126, N-(5-(1-((5-(5-(difluoromethyl)-1,3,4-oxadiazol-2-yl)pyridin-2-yl)methyl)-1H-imidazol-4-yl)pyridin-2-yl)-2,2-difluoroacetamide]"
